Drawing on patent US20240246908A1 (ORION CORPORATION, priority 2021, published 2024), this text covers IC50 for 34 compounds.

Bounds are passed on as bounds.

In the test the test system is YAP-TEAD. The test is described as follows: TEAD inhibition, Hippo Pathway TEAD Reporter MCF-7 luciferase assay. The format is cell-based. As to conditions: Homo sapiens, MCF7, 24 h, Hippo Pathway TEAD Reporter MCF-7 cells, luciferase activity after 24 h; read-out: IC50 of the test compounds on YAP-TEAD inhibition (Group). Put shortly:
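MCF-7 cells carrying a TEAD-responsive firefly luciferase reporter, with nuclear YAP1 driving constitutive expression, were treated the day after plating with compounds (11 concentrations, 4 replicates; 0.1% DMSO control). After 24 h, luciferase was read by ONE-Glo luminescence and IC50 determined.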
Usually IC50 stands for the concentration needed to halve the response being measured. As to `COc1ccc(Oc2ncc(C(F)(F)F)cc2F)cc1NC(=O)[C@@H]1CN(C)C(=O)N1C(C)=O` [Compound 343, (S)-3-Acetyl-N-(5-((3-fluoro-5-(trifluoromethyl)pyridin-2-yl)oxy)-2-methoxy-phenyl)-1-methyl-2-oxoimidazolidine-4-carboxamide], the IC50 lay within 301 to 2000 nM. With `COc1ccc(Oc2ccc(C(F)(F)F)cn2)cc1NC(=O)C1CNC(=O)C1` (stereo not shown) [Compound 344, N-(2-Methoxy-5-((5-(trifluoromethyl)pyridin-2-yl)oxy)phenyl)-5-oxopyrrolidine-3-carboxamide carboxamide] the figure was 301 to 2000 nM; with `COc1ccc(Oc2ncc(C(F)(F)F)cc2Cl)cc1NC(=O)[C@@H]1CNC(=O)N1C` [Compound 345, (S)—N-(5-((3-Chloro-5-(trifluoromethyl)pyridin-2-yl)oxy)-2-methoxyphenyl)-3-methyl-2-oxoimidazolidine-4-carboxamide], below 50 nM; with `COc1ccc(Oc2ccc(C(F)(F)F)cn2)cc1NC(=O)[C@@H]1CN(C)C(=O)N1C` [Compound 346, (S)—N-(2-Methoxy-5-((5-(trifluoromethyl)pyridin-2-yl)oxy)phenyl)-1,3-dimethyl-2-oxoimidazolidine-4-carboxamide], 50 to 300 nM.

Turning to `COCC(=O)N1CCC[C@@H]1C(=O)Nc1cc(Oc2ccc(C(F)(F)F)cc2)ccc1OC` [Compound 347, (R)—N-(2-Methoxy-5-(4-(trifluoromethyl)phenoxy)phenyl)-1-(2-methoxyacetyl)-pyrrolidine-2-carboxamide], the IC50 lay in the range of 301 to 2000 nM.

For the compound `COc1ccc(Oc2cccc(Cl)c2)cc1NC(=O)[C@@H]1CNC(=O)N1C` [Compound 348, (S)—N-(5-(3-Chlorophenoxy)-2-methoxyphenyl)-3-methyl-2-oxoimidazolidine-4-carboxamide], the IC50 was below 50 nM. The result for `COc1ccc(Oc2ccc(C(F)(F)F)cc2)cc1NC(=O)C1CC(=O)N(C)C1` (stereo not shown) [Compound 349, N-(2-Methoxy-5-(4-(trifluoromethyl)phenoxy)phenyl)-1-methyl-5-oxo-pyrrolidine-3-carboxamide] reads below 50 nM; that for `COc1ccc(Oc2ccc(C(F)(F)F)cc2Cl)cc1NC(=O)C1CCC(=O)N1` (stereo not shown) [Compound 350, N-(5-(2-Chloro-4-(trifluoromethyl)phenoxy)-2-methoxyphenyl)-5-oxopyrrolidi-ne-2-carboxamide], 50 to 300 nM. The result for `CN1C(=O)NC[C@H]1C(=O)Nc1cc(Cl)cc(Oc2ccc(C(F)(F)F)cn2)c1` [Compound 351, (S)—N-(3-Chloro-5-((5-(trifluoromethyl)pyridin-2-yl)oxy)phenyl)-3-methyl-2-oxoimidazolidine-4-carboxamide] reads below 50 nM. Consider `CN1C(=O)CCC1C(=O)Nc1cc(Cl)cc(Oc2ccc(C(F)(F)F)cn2)c1` (stereo not shown) [Compound 352, N-(3-Chloro-5-((5-(trifluoromethyl)pyridin-2-yl)oxy)phenyl)-1-methyl-5-oxopyrrolidine-2-carboxamide], for which the IC50 was below 50 nM. For the compound `COc1ccc(Oc2ccc(CF)cc2)cc1NC(=O)[C@@H]1CNC(=O)N1C` [Compound 353, (S)—N-(5-(4-(Fluoromethyl)phenoxy)-2-methoxyphenyl)-3-methyl-2-oxoimidazolidine-4-carboxamide], the half-inhibitory concentration (IC50) was 301 to 2000 nM. The result for `COC(=O)CN1C(=O)CCC1C(=O)Nc1cc(Oc2ccc(C(F)(F)F)cc2)ccc1OC` (stereo not shown) [Compound 354, Methyl 2-(2-((2-methoxy-5-(4-(trifluoromethyl)phenoxy)phenyl)carbamoyl)-5-oxopyrrolidin-1-yl)acetate] reads 301 to 2000 nM; that for `COc1ccc(Oc2ccc(C(F)(F)F)cc2)cc1NC(=O)[C@@H]1CNC(=O)C1` [Compound 355, (S)—N-(2-Methoxy-5-(4-(trifluoromethyl)phenoxy)phenyl)-5-oxopyrrolidine-3-carboxamide], below 50 nM. Turning to `COc1ccc(Oc2ccc(Cl)cc2)cc1NC(=O)[C@@H]1CNC(=O)N1C` [Compound 356, (S)—N-(5-(4-Chlorophenoxy)-2-methoxyphenyl)-3-methyl-2-oxoimidazolidine-4-carboxamide], the half-maximal inhibitory concentration (IC50) was below 50 nM. With `COc1ccc(Oc2ccc(C(F)(F)F)cc2)cc1NC(=O)[C@H]1CNC(=O)C1` [Compound 357, (R)—N-(2-Methoxy-5-(4-(trifluoromethyl)phenoxy)phenyl)-5-oxopyrrolidine-3-carboxamide], the IC50 fell in the range of 50 to 300 nM. For `COc1ccc(Oc2ncc(C(F)(F)F)cc2F)cc1NC(=O)[C@@H]1CCCN1C(C)=O` [Compound 358, (S)-1-Acetyl-N-(5-((3-fluoro-5-(trifluoromethyl)pyridin-2-yl)oxy)-2-methoxyphenyl)pyrrolidine-2-carboxamide], the IC50 was in the range of 301 to 2000 nM.

For the compound `COc1ccc(Oc2ncc(C(F)(F)F)cc2F)cc1NC(=O)[C@@H]1CN(C)C(=O)N1C` [Compound 359, (S)—N-(5-((3-Fluoro-5-(trifluoromethyl)pyridin-2-yl)oxy)-2-methoxyphenyl)-1,3-dimethyl-2-oxoimidazolidine-4-carboxamide], the IC50 lay in the range of 50 to 300 nM. Take `CN1C[C@@H](C(=O)Nc2cc(Oc3ccc(C(F)(F)F)cn3)cc3c2OCO3)N(C)C1=O` [Compound 360, (S)-1,3-Dimethyl-2-oxo-N-(6-((5-(trifluoromethyl)pyridin-2-yl)oxy)benzo[d]-[1,3]dioxol-4-yl)imidazolidine-4-carboxamide]: the IC50 was in the range of 50 to 300 nM. With `CN1C(=O)NC[C@H]1C(=O)Nc1cc(Oc2ccc(C(F)(F)F)cn2)c(F)cc1F` [Compound 361, (S)—N-(2,4-Difluoro-5-((5-(trifluoromethyl)pyridin-2-yl)oxy)phenyl)-3-methyl-2-oxoimidazolidine-4-carboxamide] the figure was below 50 nM; with `CN1C(=O)NC[C@H]1C(=O)Nc1cc(F)cc(Oc2ccc(C(F)(F)F)cn2)c1` [Compound 362, (S)—N-(3-Fluoro-5-((5-(trifluoromethyl)pyridin-2-yl)oxy)phenyl)-3-methyl-2-oxoimidazolidine-4-carboxamide], below 50 nM. The result for `CN1C(=O)CC[C@H]1C(=O)Nc1cc(Oc2ccc(C(F)(F)F)cc2)ccc1F` [Compound 363, (S)—N-(2-Fluoro-5-(4-(trifluoromethyl)phenoxy)phenyl)-1-methyl-5-oxo-pyrrolidine-2-carboxamide] reads below 50 nM; that for `CN1C[C@@H](C(=O)Nc2cc(Oc3ccc(C(F)(F)F)cn3)cc3c2OCC3)N(C)C1=O` [Compound 364, (S)-1,3-Dimethyl-2-oxo-N-(5-((5-(trifluoromethyl)pyridin-2-yl)oxy)-2,3-dihydrobenzofuran-7-yl)imidazolidine-4-carboxamide], 50 to 300 nM; that for `CN1C(=O)NC[C@H]1C(=O)Nc1cc(Oc2ccc(C(F)(F)F)cc2)ccc1F` [Compound 365, (S)—N-(2-Fluoro-5-(4-(trifluoromethyl)phenoxy)phenyl)-3-methyl-2-oxo-imidazolidine-4-carboxamide], below 50 nM.

Regarding `CN1C(=O)CCC1C(=O)Nc1cc(Oc2cccc(C(F)(F)F)c2)ccc1Br` (stereo not shown) [Compound 366, N-(2-Bromo-5-(3-(trifluoromethyl)phenoxy)phenyl)-1-methyl-5-oxopyrrolidine-2-carboxamide], the IC50 lay within 301 to 2000 nM. The result for `CN1C(=O)CCC1C(=O)Nc1cc(Oc2ccc(C(F)(F)F)cc2)ccc1C#N` (stereo not shown) [Compound 367, N-(2-Cyano-5-(4-(trifluoromethyl)phenoxy)phenyl)-1-methyl-5-oxopyrrolidine-2-carboxamide] reads 301 to 2000 nM; that for `CN1C(=O)CCC1C(=O)Nc1cc(Oc2ccc(C(F)(F)F)cn2)ccc1F` (stereo not shown) [Compound 368, N-(2-Fluoro-5-((5-(trifluoromethyl)pyridin-2-yl)oxy)phenyl)-1-methyl-5-oxopyrrolidine-2-carboxamide], 50 to 300 nM; that for `COc1ccc(Oc2ccc(C(F)(F)F)cc2)cc1NC(=O)[C@@H]1C[C@@H](O)CN1` [Compound 370, (2S,4R)-4-Hydroxy-N-(2-methoxy-5-(4-(trifluoromethyl)phenoxy)phenyl)pyrrolidine-2-carboxamide], 301 to 2000 nM. The result for `COc1ccc(Oc2ccc(C(F)(F)F)cc2)cc1NC(=O)[C@@H]1CCC(=O)N1C(C)=O` [Compound 371, (S)-1-Acetyl-N-(2-methoxy-5-(4-(trifluoromethyl)phenoxy)-phenyl)-5-oxopyrrolidine-2-carboxamide] reads 50 to 300 nM. Turning to `CN1C(=O)CCC1C(=O)Nc1cc(Oc2ccc(C(F)(F)F)cc2)ccc1O` (stereo not shown) [Compound 372, N-(2-Hydroxy-5-(4-(trifluoromethyl)phenoxy)phenyl)-1-methyl-5-oxopyrrolidine-2-carboxamide], the IC50 lay in the range of 301 to 2000 nM. For the compound `CN1C(=O)NC[C@H]1C(=O)Nc1cc(Oc2ccc(C(F)(F)F)cn2)ccc1O` [Compound 373, (S)—N-(2-Hydroxy-5-((5-(trifluoromethyl)pyridin-2-yl)oxy)phenyl)-3-methyl-2-oxoimidazolidine-4-carboxamide], the IC50 is 301 to 2000 nM. With `COc1ccc(Oc2ccc(C(F)(F)F)cc2)cc1NC(=O)C1CNCC(=O)N1C` (stereo not shown) [Compound 374, N-(2-Methoxy-5-(4-(trifluoromethyl)phenoxy)phenyl)-1-methyl-6-oxopiperazine-2-carboxamide] the figure was 301 to 2000 nM; with `CNC(CCC(=O)O)C(=O)Nc1cc(Oc2ccc(C(F)(F)F)cc2)ccc1OC` (stereo not shown) [Compound 375], below 50 nM.

`CN1C(=O)CNCC1C(=O)Nc1cc(Oc2ccc(C(F)(F)F)cc2)cc2c1OCC2` (stereo not shown) [Compound 376, 1-Methyl-6-oxo-N-(5-(4-(trifluoromethyl)phenoxy)-2,3-dihydro-benzofuran-7-yl)piperazine-2-carboxamide]: the IC50 fell in the range of 50 to 300 nM. For the compound `COc1ccc(Oc2ccc(C(F)(F)F)cc2)cc1NC(=O)C1CCC(=O)N1CCC(N)=O` (stereo not shown) [Compound 379, 1-(3-Amino-3-oxopropyl)-N-(2-methoxy-5-(4-(trifluoromethyl)-phenoxy)phenyl)-5-oxopyrrolidine-2-carboxamide], the IC50 fell in the range of 50 to 300 nM.
